The values below come from ChEMBL document CHEMBL1201862, “PubChem BioAssay data set” (2004).

Targets include Cytochrome P450 2D6 (Homo sapiens, UniProt P10635); Cytochrome P450 2C9 (Homo sapiens, UniProt P11712); Cytochrome P450 3A4 (Homo sapiens, UniProt P08684).
Another data set deals with Cytochrome P450 2C19 (Homo sapiens, UniProt P33261). As to the kind of experiment: Cytochrome panel assay with activity outcomes. Panel member name: p450-cyp2c19 Compounds with AC50 equal or less than 10 uM are considered active. The class given is functional. The following applies: read-out: AC50.
A further data set deals with T1, Leucine aminopeptidase (Plasmodium falciparum 3D7, UniProt Q8IL11).
T1 sequence (Q8IL11 whole entry): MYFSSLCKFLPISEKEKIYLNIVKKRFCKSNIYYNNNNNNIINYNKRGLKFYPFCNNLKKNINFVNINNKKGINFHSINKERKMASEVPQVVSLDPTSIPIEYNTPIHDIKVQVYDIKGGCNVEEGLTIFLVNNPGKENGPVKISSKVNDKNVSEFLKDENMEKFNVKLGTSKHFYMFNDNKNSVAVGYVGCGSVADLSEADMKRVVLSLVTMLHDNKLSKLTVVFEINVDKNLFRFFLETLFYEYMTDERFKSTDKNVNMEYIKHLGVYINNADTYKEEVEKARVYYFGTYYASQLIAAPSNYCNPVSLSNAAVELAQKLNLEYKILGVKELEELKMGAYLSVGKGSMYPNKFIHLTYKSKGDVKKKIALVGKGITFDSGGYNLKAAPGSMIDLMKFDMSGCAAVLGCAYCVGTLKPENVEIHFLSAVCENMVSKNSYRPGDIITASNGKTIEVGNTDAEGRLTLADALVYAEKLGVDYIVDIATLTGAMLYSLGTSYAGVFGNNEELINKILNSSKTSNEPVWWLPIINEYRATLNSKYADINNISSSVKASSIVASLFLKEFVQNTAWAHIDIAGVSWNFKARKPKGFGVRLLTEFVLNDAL
Kind of data set: P. falciparum M17LAP inhibitors, primary screen, biochemical, fluorogenic H-Leu-NHMec substrate, 1536-well (AID 1619). In kind it is functional.

Data set [1] deals with T2, Replicative DNA helicase DnaB (Mycobacterium tuberculosis, UniProt P9WMR3).
T2 sequence (P9WMR3 whole entry): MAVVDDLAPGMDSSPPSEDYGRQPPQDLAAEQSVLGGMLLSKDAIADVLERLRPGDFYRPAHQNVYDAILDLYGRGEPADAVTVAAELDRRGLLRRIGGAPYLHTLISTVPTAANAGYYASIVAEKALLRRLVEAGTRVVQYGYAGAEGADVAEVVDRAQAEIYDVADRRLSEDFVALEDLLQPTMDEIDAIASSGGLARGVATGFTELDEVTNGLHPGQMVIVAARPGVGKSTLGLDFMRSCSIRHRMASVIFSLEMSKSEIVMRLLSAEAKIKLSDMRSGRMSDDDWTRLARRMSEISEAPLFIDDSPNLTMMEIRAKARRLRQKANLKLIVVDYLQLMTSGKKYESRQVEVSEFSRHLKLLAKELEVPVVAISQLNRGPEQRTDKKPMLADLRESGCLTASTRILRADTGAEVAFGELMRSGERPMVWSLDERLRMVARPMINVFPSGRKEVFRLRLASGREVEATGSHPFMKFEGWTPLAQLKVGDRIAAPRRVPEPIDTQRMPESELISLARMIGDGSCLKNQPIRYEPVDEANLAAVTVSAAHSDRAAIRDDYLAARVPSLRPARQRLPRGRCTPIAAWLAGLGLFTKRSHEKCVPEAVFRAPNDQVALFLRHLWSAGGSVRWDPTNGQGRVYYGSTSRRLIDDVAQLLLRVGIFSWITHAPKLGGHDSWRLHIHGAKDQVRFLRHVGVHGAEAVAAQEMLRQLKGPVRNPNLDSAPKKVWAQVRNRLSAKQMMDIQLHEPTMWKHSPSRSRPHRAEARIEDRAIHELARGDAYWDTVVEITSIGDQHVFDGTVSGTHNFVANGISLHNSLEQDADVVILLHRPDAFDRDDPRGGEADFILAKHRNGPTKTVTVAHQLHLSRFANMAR
As to the kind of experiment: DnaB intein splicing inhibitors, dose response, biochemical, cell-free fluorescence (AID 449749). The class given is functional.

Another data set concerns the target T3, Protein RecA (Mycobacterium tuberculosis, UniProt P9WHJ3).
T3 sequence (P9WHJ3 whole entry): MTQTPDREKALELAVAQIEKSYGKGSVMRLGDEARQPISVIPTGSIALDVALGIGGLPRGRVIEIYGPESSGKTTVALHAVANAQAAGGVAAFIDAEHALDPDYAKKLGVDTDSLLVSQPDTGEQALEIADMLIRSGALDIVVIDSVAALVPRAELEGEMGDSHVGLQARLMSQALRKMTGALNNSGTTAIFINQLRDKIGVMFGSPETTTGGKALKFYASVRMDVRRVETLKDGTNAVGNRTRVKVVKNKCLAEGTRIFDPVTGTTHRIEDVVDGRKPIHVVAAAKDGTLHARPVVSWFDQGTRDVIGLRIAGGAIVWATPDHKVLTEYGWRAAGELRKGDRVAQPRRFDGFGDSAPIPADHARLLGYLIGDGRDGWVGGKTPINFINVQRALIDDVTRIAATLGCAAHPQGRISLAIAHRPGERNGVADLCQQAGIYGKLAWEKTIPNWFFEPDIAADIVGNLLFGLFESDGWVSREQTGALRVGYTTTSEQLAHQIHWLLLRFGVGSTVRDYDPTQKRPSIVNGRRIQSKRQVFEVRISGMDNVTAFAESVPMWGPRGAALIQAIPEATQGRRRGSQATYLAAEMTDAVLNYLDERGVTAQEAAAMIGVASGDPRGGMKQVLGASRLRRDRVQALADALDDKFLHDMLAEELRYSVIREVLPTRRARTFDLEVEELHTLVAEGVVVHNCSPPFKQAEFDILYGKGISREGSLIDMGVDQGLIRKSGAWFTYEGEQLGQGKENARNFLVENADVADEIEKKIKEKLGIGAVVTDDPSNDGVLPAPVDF
Kind of data set: Fluorescence Cell-Free Homogeneous Dose Retest to Identify Inhibitors of RecA-Intein Splicing Activity. [Related pubchem assays (depositor defined):AID2097, AID2223, AID489010, AID492950]. The class given is functional.

The next data set concerns the target T4, Cytochrome P450 1A2 (Homo sapiens, UniProt P05177).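 Also: PubChem cytochrome P450 panel assay, CYP1A2 panel member.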
T4 sequence (P05177 whole entry): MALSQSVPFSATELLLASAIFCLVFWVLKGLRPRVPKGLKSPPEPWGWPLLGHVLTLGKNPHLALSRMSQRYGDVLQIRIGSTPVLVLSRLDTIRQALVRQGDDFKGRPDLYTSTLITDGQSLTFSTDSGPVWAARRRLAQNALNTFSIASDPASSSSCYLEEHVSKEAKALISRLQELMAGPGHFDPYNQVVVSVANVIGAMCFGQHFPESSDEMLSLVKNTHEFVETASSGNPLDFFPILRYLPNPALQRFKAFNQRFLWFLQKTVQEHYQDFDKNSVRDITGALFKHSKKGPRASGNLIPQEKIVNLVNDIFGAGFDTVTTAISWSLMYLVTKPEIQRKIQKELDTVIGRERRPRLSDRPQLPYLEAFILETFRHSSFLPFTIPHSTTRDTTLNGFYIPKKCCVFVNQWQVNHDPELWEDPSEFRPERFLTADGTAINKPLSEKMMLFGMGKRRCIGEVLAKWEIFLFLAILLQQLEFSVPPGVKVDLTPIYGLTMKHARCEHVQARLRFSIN

The subject of another data set is P388/ADR. Kind of data set: cells. The class given is functional. The conditions noted are these: Mus musculus.
In another data set the test system is SN12K1. As to the kind of experiment: cells. In kind it is functional. The conditions noted are these: Homo sapiens.
A further data set concerns P388. Kind of data set: cells. The conditions noted are these: Mus musculus. The class given is functional.
A further data set deals with Large T antigen (Simian virus 40, UniProt P03070). In kind it is functional, Betapolyomavirus macacae.
Data set [2] has as its target T5, Rac GTPase-activating protein 1 (Homo sapiens, UniProt Q9H0H5).
T5 sequence (Q9H0H5 whole entry): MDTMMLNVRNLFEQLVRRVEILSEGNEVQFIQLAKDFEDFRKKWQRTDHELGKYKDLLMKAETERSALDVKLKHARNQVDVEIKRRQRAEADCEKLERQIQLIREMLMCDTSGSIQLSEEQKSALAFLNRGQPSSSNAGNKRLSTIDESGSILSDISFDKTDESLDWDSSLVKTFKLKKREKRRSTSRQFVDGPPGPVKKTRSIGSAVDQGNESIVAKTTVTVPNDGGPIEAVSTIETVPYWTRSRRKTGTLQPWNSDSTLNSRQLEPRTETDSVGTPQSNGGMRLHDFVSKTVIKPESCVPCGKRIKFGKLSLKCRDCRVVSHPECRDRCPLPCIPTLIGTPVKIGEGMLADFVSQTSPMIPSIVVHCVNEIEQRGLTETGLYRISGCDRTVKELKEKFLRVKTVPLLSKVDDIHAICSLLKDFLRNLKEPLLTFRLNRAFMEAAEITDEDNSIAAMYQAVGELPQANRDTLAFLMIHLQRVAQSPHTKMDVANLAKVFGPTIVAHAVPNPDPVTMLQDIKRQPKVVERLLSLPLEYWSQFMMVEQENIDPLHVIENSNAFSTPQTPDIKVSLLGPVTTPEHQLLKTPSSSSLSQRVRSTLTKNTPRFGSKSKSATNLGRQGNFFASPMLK
As to the kind of experiment: MgcRacGAP GTPase-activating activity inhibitors, confirmation, biochemical, ADP Hunter fluorescence, primary and confirmatory (AID 624330). The class given is functional.

The AC50 is the concentration giving half of the maximal activity seen. The term IC50 denotes the concentration at which inhibition is half-maximal. The term EC50 denotes the midpoint of the concentration-response curve. The term GI50 denotes the concentration giving 50% growth inhibition.

Active and inactive are the calls of the source.

Cytochrome P450 2D6, sequence (P10635 whole entry): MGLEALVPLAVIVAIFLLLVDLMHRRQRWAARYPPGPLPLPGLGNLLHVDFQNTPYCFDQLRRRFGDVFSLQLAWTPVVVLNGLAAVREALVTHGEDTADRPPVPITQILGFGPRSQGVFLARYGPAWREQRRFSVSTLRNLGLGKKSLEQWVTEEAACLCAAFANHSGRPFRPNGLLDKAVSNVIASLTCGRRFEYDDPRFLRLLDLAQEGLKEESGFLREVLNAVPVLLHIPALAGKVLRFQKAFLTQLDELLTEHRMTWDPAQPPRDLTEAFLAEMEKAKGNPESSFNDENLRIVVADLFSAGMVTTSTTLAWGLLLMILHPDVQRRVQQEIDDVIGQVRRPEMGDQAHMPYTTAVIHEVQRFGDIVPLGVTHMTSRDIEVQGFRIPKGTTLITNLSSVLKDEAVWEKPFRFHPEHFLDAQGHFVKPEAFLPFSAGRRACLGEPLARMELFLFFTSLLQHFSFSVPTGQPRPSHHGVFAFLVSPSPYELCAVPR
Cytochrome P450 2C9, sequence (P11712 whole entry): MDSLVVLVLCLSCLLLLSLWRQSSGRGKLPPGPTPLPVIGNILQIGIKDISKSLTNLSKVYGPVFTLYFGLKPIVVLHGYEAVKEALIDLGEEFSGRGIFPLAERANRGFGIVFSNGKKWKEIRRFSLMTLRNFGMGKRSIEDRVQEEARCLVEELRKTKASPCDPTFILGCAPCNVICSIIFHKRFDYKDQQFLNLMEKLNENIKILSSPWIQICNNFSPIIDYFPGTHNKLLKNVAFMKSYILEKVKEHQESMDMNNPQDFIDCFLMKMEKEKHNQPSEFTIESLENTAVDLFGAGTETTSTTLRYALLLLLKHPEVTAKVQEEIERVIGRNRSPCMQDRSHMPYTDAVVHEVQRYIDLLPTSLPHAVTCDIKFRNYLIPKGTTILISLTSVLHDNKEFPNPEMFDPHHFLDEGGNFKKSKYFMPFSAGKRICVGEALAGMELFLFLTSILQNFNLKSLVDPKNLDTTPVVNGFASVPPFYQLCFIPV
Cytochrome P450 2C19, sequence (P33261 whole entry): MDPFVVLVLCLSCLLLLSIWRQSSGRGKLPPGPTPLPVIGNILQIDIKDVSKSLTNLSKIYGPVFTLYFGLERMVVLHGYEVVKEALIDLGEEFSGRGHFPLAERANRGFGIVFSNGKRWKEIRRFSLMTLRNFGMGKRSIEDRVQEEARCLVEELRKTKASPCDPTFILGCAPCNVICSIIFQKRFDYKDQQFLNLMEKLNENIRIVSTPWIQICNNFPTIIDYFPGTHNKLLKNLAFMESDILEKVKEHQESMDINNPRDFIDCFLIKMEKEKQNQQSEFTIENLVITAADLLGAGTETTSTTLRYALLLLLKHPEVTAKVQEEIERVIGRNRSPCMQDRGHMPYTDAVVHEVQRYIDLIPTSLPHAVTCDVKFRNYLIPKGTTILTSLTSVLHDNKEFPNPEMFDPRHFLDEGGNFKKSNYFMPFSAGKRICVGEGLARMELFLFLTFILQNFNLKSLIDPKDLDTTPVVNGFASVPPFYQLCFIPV
Cytochrome P450 3A4, sequence (P08684 whole entry): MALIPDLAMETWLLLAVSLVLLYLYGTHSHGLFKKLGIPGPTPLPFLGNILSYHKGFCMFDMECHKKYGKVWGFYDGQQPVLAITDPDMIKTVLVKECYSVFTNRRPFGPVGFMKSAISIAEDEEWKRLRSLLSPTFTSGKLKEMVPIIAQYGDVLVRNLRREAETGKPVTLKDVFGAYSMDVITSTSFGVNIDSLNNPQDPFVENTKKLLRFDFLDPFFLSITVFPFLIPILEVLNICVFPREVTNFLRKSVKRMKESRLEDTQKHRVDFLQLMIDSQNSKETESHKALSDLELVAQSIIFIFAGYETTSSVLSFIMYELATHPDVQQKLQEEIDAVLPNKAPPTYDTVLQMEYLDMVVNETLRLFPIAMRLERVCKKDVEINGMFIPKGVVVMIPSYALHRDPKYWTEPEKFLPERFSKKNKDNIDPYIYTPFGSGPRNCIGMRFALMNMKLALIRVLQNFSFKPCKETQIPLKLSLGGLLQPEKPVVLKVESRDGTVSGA
Large T antigen, sequence (P03070 whole entry): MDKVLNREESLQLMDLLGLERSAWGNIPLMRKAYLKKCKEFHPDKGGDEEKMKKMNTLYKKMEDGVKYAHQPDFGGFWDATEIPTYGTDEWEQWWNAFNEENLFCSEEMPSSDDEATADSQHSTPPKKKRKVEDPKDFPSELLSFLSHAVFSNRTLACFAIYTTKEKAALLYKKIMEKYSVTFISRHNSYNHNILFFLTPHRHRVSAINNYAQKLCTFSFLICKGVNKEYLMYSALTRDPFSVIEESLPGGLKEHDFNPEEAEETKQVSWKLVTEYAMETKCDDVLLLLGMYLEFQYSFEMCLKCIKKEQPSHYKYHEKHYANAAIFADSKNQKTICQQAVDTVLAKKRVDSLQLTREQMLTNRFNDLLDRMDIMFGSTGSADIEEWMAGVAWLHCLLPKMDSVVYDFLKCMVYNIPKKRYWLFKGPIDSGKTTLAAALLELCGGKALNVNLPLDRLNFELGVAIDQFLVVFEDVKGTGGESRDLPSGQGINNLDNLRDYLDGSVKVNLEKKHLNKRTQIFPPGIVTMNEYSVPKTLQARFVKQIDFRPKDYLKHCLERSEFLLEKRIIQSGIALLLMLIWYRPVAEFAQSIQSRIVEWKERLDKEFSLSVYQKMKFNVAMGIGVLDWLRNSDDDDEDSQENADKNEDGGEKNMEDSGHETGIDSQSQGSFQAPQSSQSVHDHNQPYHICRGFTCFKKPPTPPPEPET

`CS(=O)(=O)Nc1cccc(-c2cc(Nc3ccccc3)ncn2)c1`: the figures for the concentration at half-maximal activity (AC50) at Cytochrome P450 2C19, at Cytochrome P450 2D6 and on Cytochrome P450 2C9 were 31.6 µM (inconclusive), 25.1 µM (inconclusive) and “inconclusive”, respectively.

On to `CC(C)(C)C1CCc2c(C(=O)NNC(=O)CCCC(=O)O)csc2C1` (stereo not drawn), for which, at Leucine aminopeptidase, the IC50 is 11.6 µM (active).

With `Cc1ccc(-c2n[nH]c3c2C(C)C(C#N)=C(N)O3)cc1` (stereo not drawn), the half-inhibitory concentration (IC50) on Leucine aminopeptidase is 16.3 µM (active). In addition, the half-maximal activity concentration (AC50) in data set [1] was > 380 µM (inconclusive). The concentration giving a half-maximal response (EC50) at Protein RecA was 0.518 µM (active).

Regarding `COc1ccc(CNc2nc(-c3ccccc3CN(C)C)nc3ccccc23)c(OC)c1`, the half-maximal activity concentration (AC50) at Cytochrome P450 2C19 is 15.8 µM (inconclusive); at Cytochrome P450 2C9, “inconclusive”.

`Cc1ccccc1C(=O)NN(C)c1nc2ccccc2nc1C(F)(F)F`: the AC50 at Cytochrome P450 3A4 is 7.08 µM (inconclusive); on Cytochrome P450 2C9, “inconclusive”.

For the compound `CCn1c(SC)nnc1C1CCN(S(=O)(=O)c2ccc(OC)cc2)CC1`, the AC50 at Cytochrome P450 2D6 is 8.91 µM (inconclusive); at Cytochrome P450 2C9, “inconclusive”.

As for `CCCCCCCCCCCCCCCCCC(=O)NC[C@@H](COP(=O)([O-])OCC[N+](C)(C)C)OCC`, the AC50 on Cytochrome P450 2D6 was 39.8 µM (inconclusive); at Cytochrome P450 1A2, 39.8 µM (inconclusive); at Cytochrome P450 2C9, “inconclusive”.

`CCc1ccccc1N1CCN(C(=O)c2cc(OC)c(OC)c(OC)c2)CC1`: the concentration for 50% growth inhibition (GI50) was 0.119 µM (active) with P388/ADR, 0.0614 µM (active) in the data set on SN12K1 and 0.0395 µM (active) in the data set on P388.

Take `NC1CCCCC1`: the values for the GI50 in the data set with SN12K1 and with P388 were 243 µM (inactive) and 92.9 µM (inactive), respectively.

Turning to `CC(=O)[C@H]1CCC2[C@@H]3CC=C4C(O)C(OS(=O)(=O)O)CC[C@]4(C)C3CC[C@@]21C` (stereo partly drawn), the GI50 in the data set on P388/ADR, in the data set with SN12K1 and in the data set on P388 was > 100 µM (inactive) each time.

As to `CC1[C@@H]2CC=C3C4CCC5Cc6nc7c(nc6C[C@@]5(C)C4CC(=O)[C@]32CO[C@@]1(O)C(O)CC(C)(C)O)CC1CCC2C3=C[C@H]4O[C@@]5(O[C@@](C)(CO)C[C@@H]5O)C(C)[C@@]4(O)[C@]3(C)[C@@H](O)CC2[C@]1(C)C7` (stereo partly drawn), the 50% growth inhibitory concentration (GI50) in the data set with P388/ADR was 0.0105 µM (active); with SN12K1, < 0.00036 µM (active); in the data set with P388, < 0.00036 µM (active).

As for `O=C1C2C3C=CC(CC3)C2C(=O)N1/N=C/c1ccc(O)c(O)c1` (stereo not drawn), the IC50 at Leucine aminopeptidase is 34.3 µM (active); at Large T antigen it was 4.4 µM (active); in [2], 74 µM (active).

`O/N=C/c1c[nH]c2ccccc12`: on Leucine aminopeptidase, the IC50 is 13.2 µM (active).

Regarding `CC[C@](O)(C(=O)O)c1cc2n(c(=O)c1CO)Cc1cc3ccccc3nc1-2`, the concentration for 50% growth inhibition (GI50) was 0.03 µM (active) in the data set on P388/ADR, 0.209 µM (active) in the data set on SN12K1 and 0.025 µM (active) in the data set with P388.

Take `COCCO` [2-METHOXYETHANOL]: the GI50 in the data set with P388/ADR, in the data set on SN12K1 and with P388 was > 100 µM (inactive) throughout.

Take `NC(Cc1c[nH]c2ccccc12)C(=O)O` (stereo not drawn) [DL-TRYPTOPHAN]: the GI50 was > 300 µM (inactive) with P388/ADR, > 300 µM (inactive) in the data set with SN12K1 and 269 µM (inactive) in the data set on P388.

In the case of `Nc1n[nH]c(N)n1` [GUANAZOLE], the GI50 in the data set on P388/ADR is 1060 µM (inactive); with SN12K1, 2830 µM (inactive); with P388, 728 µM (inactive).
